This is an account of results in patent US6379959B1, “Metalocarboxypeptidase inhibitors and derived molecules used as antitumor agents” (Universitat Autonoma de Barcelona, priority 1996, dated 2002).

Positions of bridges follow the written chain, without caps; N, C: chain ends. No end group written: not given here.

Experiment [1] has as its system hamster insulinome cell line HIT. As to the kind of experiment: Proliferation test by recount of the cells number (hemocytometer), HIT. In kind it is cell-based. The note with it: Postadhesion, 4 days. Here is the method:
In this assay and with the aim of determining whether the presence in the culture medium produces some effect on the growth in vitro of the cell lines, the final number of the cells when the control reaches monolayer is determined, in the presence and in the absence of the inhibitor. The calculation is made by direct recount of the number of cells using trypsinization and subsequent recount in a hemocytometer. The detailed method is as follows: 1. In each of the three culture flasks of 25 cm^2, 5×10^5 cells are seed and a total volume of the culture medium is added (DMEM with a 10% of fetal bovine serum or synthetic serum, according to the test) of 5 mL: 2. The cells are maintained in an incubator at 37° C., 87% of relative humidity and 10% of CO2. […] The total number of cells of the W zone of the hemocytometer is counted, differentiating between the live and the dead ones. Based on this recount, the total number of cells that was in the initial suspension (which will be the total number of cells that was in the culture) is calculated by multiplying the number obtained by 2×10^4. The viability (in %) is calculated by dividing the number of live cells by the total number of counted cells and multiplying it by 100. The effect produced by the presence of PCI in the medium is expressed as % of cell growth inhibition, which is calculated according to the formula [formula] […]

In experiment [2] the test system is mouse melanoma B16HM cell line. As to the kind of experiment: In vitro invasiveness assay through Matrigel membrane. The note with it: PCI 50 μg/mL. It counts as cell-based. As to the method: In this test, with the aim of determining whether the PCI causes some difference in the invasive capacity of tumoral cells in vitro, the number of cells which had migrated through a membrane of Matrigel© in presence or absence of PCI in the culture medium was determined. The detailed protocol is as follows:
1. The wells of Matrigel© which are going to be employed are placed at room temperature on an empty plate of 24.
2. The wells are hydrated by adding […] of tempered full medium and kept for 1.5-2.0 h.
3. After the hydration, take the medium carefully out of the wells; later on, 200,000 cells are added to two wells, respectively. In one of them, we will add the medium in which the cells grow and in the other, medium with PCI.
4. After 17 h of culture in an incubator at 37° C., 90% of relative humidity and 5% of CO2, the samples are processed as follows:
4.11. Look at the microscope and count the number of cells that have migrated through the Matrigel filter.
The invasiveness tests in vitro were carried out with the mouse melanoma B16HM cell line selected as previously described (Barberàr-Guillem, E. et al. (1988) Invasion Metastasis, 8: 266-284). The wells were placed with medium in absence of PCI (control) and in presence of PCI, at a concentration of 50 μg/mL. […]

The subject of a further experiment is Capan-1 cell line. As to the kind of experiment: Proliferation of Capan-1 cells pretreated with PCI. It counts as cell-based, human. The note with it: pretreatment 50 μg/mL of PCI, 28-34 days; treatment 5-18 days. As to the method:
In the case of the Capan-1 cell line, two different tests and which are described as follows were carried out:
1. 5,000 cells were seed in 2 wells of a plate of 12 wells. One of the wells was grown with medium (non-pretreated cells), and the other with medium with 50 μg/mL of PCI (pretreated cells). The cells were kept in such conditions for the period of time that is indicated in the results section as time of pretreatment.
2. Twice a week, the medium of the wells was replaced by fresh medium with or without PCI, and each time that in any of the wells confluence was reached, the cells were trypsinized and 1/10 of them was placed again in the original well, the other cells being discarded or frozen.
3. Once the desired time of pretreatment elapsed, the cells were trypsinized and counted, being employed to start proliferation tests such as those described in Section 4.B.2.1. The number of cells that was placed per well in the proliferation plate (of 96 wells) was 2,000, 7 replicas being put for each treatment. The cells underwent treatment with or without various PCI concentrations.
4. Once the treatment time elapsed, the number of cells per well was estimated as previously described in Section 4.B.2.a.

With “PCI: potato carboxypeptidase inhibitor, isoform IIa, obtained by recombinant DNA techniques in E. coli (SEQ ID NO.2) (EQHADPICNKPCKTHDDCSGAWFCQACWNSARTCGPYVG; disulfide 12-27, 18-34, 8-24)”, the “Percentage of Growth Inhibition” value is 43.0 ± 22.8% in experiment [1] (10 mg PCI/mL) and 60.1 ± 28.3% in experiment [1] (50 mg PCI/mL). Besides, in experiment [2], the “stimulation of the migration compared to the control” value came out at 3.5 times. For the same substance, the “number of cells that passed through the Matrigel membrane” value in experiment [2] (17 h (control 29 cells)) came out at 110 cells. The “final number of cells, pretreated cells cultivated afterwards in absence of PCI vs non-pretreated cells” value in the experiment with Capan-1 cell line was “approximately half”.
